≈ marks a conversion by molar mass, not a printed value.
Tests used:
Assay type in all cases: functional, cell-based
HT-29 = assay: Cytotoxicity against human HT-29 cells
A549 = assay: Cytotoxicity against human A549 cells
SK-MEL-28 = assay: Cytotoxicity against human SK-MEL-28 cells
P388 = assay: Cytotoxicity against mouse P388 cells

`C=C1[C@H]2[C@@H](OC(C)=O)OC=C([C@H](OC(C)=O)[C@@H](C=C(C)C)OC(=O)c3ccccc3)[C@H]2CC/C(C)=C/[C@H](OC(C)=O)[C@H]1O` [ANTHELIATIN] showed an IC50 (HT-29) of 0.1 µg/mL (≈ 0.168 µM), an IC50 (A549) of 1 µg/mL (≈ 1.68 µM) and an IC50 (SK-MEL-28) of 1 µg/mL (≈ 1.68 µM). For the same compound, the IC50 (P388) was 1 µg/mL (≈ 1.68 µM).
Compound `C=C(C)C(CC(OC(C)=O)C1=CO[C@H](OC(C)=O)[C@@H]2C(=C)[C@H](O)C/C=C(\C)CC[C@H]12)OC(C)=O` (some centres not stated) [ZAHAVIN B] has an IC50 (HT-29) of 1 µg/mL (≈ 2.1 µM), an IC50 (A549) of 1 µg/mL (≈ 2.1 µM) and an IC50 (SK-MEL-28) of 1 µg/mL (≈ 2.1 µM). The IC50 (P388) was 1 µg/mL (≈ 2.1 µM).
In the case of `C=C(C)C(CC(OC(C)=O)C1=CO[C@H](OC(C)=O)[C@H]2C(=C)CC/C=C(\C)CC[C@H]12)OC(C)=O` (some centres not stated) [ZAHAVIN A], the IC50 (HT-29) is reported as 1 µg/mL (≈ 2.17 µM), the IC50 (A549) is reported as 1 µg/mL (≈ 2.17 µM) and the IC50 (SK-MEL-28) is reported as 1 µg/mL (≈ 2.17 µM). The IC50 (P388) was 1 µg/mL (≈ 2.17 µM).
